According to paper PMC6199744, “Development of Chemical Proteomics for the Folateome and Analysis of the Kinetoplastid Folateome” (ACS Infectious Diseases, 2018):
Read-outs that look alike come from different tables or passages of the source.

How the values were obtained:
Assay type in all cases: binding
[1] = target: T1, HeLa cell extract proteins (Homo sapiens, UniProt Q7Z4G4)
T1 construct: endogenous in cells; host or cells: HeLa cell extract
T1 sequence (Q7Z4G4 1-463): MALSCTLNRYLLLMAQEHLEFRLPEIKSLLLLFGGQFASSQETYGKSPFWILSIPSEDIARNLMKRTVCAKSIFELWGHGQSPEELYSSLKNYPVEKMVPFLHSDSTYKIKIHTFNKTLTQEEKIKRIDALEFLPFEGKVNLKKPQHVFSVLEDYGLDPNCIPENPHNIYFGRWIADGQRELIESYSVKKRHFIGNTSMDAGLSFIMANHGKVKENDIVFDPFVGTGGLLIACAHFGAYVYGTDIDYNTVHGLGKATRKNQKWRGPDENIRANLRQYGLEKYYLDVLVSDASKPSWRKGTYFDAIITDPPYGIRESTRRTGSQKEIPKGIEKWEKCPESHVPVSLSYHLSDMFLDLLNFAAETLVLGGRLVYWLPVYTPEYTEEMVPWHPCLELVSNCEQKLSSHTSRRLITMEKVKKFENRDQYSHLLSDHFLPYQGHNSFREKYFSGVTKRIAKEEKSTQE

[2] = target: T2, HeLa cell extract proteins (Homo sapiens, UniProt P02786)
T2 construct: endogenous in cells; host or cells: HeLa cell extract

[3] = target: T3, HeLa cell extract proteins (Homo sapiens, UniProt O75694)
T3 construct: endogenous in cells; host or cells: HeLa cell extract
T3 sequence (O75694 1-1391): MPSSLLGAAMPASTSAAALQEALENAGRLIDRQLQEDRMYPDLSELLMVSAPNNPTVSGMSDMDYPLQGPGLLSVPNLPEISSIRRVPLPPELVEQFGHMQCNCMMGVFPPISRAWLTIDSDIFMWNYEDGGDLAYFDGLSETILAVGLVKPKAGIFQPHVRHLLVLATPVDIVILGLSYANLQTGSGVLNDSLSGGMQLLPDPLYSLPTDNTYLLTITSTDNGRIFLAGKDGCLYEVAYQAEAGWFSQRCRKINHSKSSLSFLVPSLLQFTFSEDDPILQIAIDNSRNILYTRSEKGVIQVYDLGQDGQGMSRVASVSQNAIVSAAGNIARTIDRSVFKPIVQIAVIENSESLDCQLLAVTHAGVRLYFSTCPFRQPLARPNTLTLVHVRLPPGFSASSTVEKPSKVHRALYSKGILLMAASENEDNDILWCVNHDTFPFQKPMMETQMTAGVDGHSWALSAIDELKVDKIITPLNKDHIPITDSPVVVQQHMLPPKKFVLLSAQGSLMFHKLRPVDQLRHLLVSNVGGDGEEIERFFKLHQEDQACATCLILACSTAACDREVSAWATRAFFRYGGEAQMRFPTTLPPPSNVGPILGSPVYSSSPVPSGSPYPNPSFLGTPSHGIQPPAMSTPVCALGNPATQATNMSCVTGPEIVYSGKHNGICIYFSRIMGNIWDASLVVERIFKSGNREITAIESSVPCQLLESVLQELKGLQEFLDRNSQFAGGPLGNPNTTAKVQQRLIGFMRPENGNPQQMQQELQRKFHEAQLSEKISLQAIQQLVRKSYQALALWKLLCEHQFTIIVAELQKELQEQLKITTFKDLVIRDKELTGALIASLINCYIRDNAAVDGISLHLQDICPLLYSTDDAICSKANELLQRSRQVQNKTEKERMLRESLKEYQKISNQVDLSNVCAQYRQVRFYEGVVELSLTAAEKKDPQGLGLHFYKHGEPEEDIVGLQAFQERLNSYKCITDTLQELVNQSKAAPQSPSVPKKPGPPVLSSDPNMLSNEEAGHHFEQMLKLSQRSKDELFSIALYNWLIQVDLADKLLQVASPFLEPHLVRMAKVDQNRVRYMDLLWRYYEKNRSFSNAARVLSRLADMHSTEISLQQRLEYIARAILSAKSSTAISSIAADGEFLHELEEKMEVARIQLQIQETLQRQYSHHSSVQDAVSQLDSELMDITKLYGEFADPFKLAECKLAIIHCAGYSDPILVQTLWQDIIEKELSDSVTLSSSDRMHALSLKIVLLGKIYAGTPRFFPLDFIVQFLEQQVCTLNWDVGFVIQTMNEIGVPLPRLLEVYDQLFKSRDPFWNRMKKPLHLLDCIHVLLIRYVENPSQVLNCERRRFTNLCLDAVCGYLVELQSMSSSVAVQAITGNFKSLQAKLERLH

[4] = target: T4, HeLa cell extract proteins (Homo sapiens, UniProt P29692)
T4 construct: endogenous in cells; host or cells: HeLa cell extract
T4 sequence (P29692 1-281): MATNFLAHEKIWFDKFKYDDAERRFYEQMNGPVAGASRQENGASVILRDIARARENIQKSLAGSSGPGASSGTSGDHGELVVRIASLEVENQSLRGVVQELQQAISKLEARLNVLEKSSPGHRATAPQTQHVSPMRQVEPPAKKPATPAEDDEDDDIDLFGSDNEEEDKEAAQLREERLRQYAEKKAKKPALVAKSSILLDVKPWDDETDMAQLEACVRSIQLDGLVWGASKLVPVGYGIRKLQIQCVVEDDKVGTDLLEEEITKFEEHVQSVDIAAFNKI

[5] = target: T5, HeLa cell extract proteins (Homo sapiens, UniProt Q9UHX1)
T5 construct: endogenous in cells; host or cells: HeLa cell extract
T5 sequence (Q9UHX1 1-559): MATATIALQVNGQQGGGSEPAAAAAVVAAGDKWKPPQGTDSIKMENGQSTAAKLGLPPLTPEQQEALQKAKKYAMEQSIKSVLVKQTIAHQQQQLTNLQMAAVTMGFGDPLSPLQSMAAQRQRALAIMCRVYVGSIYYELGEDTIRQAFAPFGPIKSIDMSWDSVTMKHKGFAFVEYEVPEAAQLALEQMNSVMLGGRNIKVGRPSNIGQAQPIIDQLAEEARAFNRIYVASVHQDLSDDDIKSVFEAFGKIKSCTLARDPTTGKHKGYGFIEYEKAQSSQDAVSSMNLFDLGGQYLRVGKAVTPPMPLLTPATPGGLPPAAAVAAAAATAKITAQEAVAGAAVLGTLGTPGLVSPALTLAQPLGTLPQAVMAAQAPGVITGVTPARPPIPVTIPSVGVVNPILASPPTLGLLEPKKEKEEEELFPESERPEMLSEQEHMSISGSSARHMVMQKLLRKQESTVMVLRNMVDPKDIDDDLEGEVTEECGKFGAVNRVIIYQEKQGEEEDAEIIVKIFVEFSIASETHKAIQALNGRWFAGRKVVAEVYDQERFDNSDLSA

T2 sequence (P02786 whole entry): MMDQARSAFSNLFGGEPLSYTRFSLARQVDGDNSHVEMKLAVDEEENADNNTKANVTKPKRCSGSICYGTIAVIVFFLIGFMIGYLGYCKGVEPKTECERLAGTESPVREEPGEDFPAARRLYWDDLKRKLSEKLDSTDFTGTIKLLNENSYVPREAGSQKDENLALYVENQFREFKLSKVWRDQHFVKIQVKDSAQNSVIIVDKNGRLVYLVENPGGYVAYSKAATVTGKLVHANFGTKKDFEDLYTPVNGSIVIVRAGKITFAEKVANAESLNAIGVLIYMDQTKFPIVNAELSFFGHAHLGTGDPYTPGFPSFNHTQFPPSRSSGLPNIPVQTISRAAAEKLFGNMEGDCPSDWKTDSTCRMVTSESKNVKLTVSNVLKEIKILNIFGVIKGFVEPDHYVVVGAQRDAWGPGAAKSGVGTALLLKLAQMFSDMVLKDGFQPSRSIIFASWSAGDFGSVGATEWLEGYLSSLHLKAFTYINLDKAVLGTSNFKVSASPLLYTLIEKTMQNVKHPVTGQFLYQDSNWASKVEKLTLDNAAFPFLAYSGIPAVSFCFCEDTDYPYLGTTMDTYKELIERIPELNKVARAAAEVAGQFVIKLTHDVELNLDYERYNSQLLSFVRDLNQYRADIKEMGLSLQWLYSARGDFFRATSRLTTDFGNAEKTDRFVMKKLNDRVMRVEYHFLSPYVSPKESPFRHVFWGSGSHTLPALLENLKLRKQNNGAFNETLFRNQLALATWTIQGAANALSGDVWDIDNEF

Row | SMILES | fold changes relative to vehicle control ([1]; HeLa, captured protein TRMT11) | fold changes relative to vehicle control ([2]; HeLa, protein TFRC) | fold changes relative to vehicle control ([3]; HeLa, protein NUP155) | fold changes relative to vehicle control ([4]; protein EEF1D, HeLa) | fold changes relative to vehicle control ([5]; HeLa, captured protein PUF60) | fold changes relative to vehicle control [1] | fold changes relative to vehicle control [2] | fold changes relative to vehicle control [3] | fold changes relative to vehicle control [4] | fold changes relative to vehicle control [5] | fold changes relative to vehicle control ([1]; HeLa, protein TRMT11) | fold changes relative to vehicle control ([2]; protein TFRC, HeLa) | fold changes relative to vehicle control ([5]; HeLa, protein PUF60)
1 | Nc1nc2c(c(=O)[nH]1)N(C=O)C(CNc1ccc(C(=O)N[C@@H](CCC(=O)O)C(=O)O)cc1)CN2 (some centres unmarked) [LEU, leucovorin] | 1.15 | 0.94 | 0.87 | 0.99 | 1.01 | – | – | – | – | – | – | – | –
2 | Nc1nc2[nH]cc(CCc3ccc(C(=O)N[C@@H](CCC(=O)O)C(=O)O)cc3)c2c(=O)[nH]1 [PTX, pemetrexed] | – | – | – | – | – | 0.85 | 1.01 | 0.92 | 1.01 | 0.9 | – | – | –
3 | CCCCCCOc1ccc(Cc2cnc(N)nc2N)cc1 [compound 1] | – | – | 1.04 | 1.26 | – | – | – | – | – | – | 1.13 | 1.26 | 1.01
4 | CCCCCCOc1cccc(Cc2cnc(N)nc2N)c1 [compound 2] | – | – | 1.01 | 1.8 | – | – | – | – | – | – | 1.19 | 1.96 | 1.05
5 | Nc1nc2cccc(-c3ccccc3)c2n1Cc1ccc(Cl)c(Cl)c1 [compound 3] | – | – | 1.2 | 1.1 | – | – | – | – | – | – | 0.96 | 0.99 | 1.02
6 | NCCOCCOCC(=O)Nc1nc2ncc(CNc3ccc(C(=O)NC(CCC(=O)O)C(=O)O)cc3)nc2c(=O)[nH]1 (centres unmarked) [compound 6] | 0.86 | 1.09 | 0.92 | 1.09 | 0.92 | – | – | – | – | – | – | – | –
7 | NCCCNc1ccc(C(=O)NC(CCC(=O)O)C(=O)O)cc1 (centres unmarked) [compound 7] | 1.07 | 0.87 | 1.03 | 0.93 | 0.95 | – | – | – | – | – | – | – | –
